From patent US10676443B2, “Method for producing (4S)-4-[4-cyano-2-(methylsulfonyl)phenyl]-3,6-dimethyl-2-oxo-1-[3-(trifluoromethyl)phenyl]-1,2,3,4-tetrahydro pyrimidine-5-carbonitrile” (pH Pharma Co., Ltd., priority 2015, dated 2020) come the findings set out here.

The data set is described as follows: stability of crystal form (A) on storage, even at high humidity. Type of data set: physicochemical. To be noted: solid crystal form (A).

Turning to `CC1=C(C#N)[C@@H](c2ccc(C#N)cc2S(C)(=O)=O)N(C)C(=O)N1c1cccc(C(F)(F)F)c1` [crystal form (A), (S)-4-[4-cyano-2-(methylsulfonyl)phenyl]-3,6-dimethyl-2-oxo-1-[3-(trifluoromethyl)phenyl]-1,2,3,4-tetrahydropyrimidine-5-carbonitrile], the stability properties entry (even at high humidity) was “very good”. The “storage time with no loss of stability” value (storage) is given as “more than 3 years”.
